According to article PMC3203539 (2011):
Read-outs that look alike come from different tables or passages of the source.

What was measured:
[1] = biological target: T1, Sth1 (ATPase subunit of RSCt, trimeric minimal RSC) (Saccharomyces cerevisiae, UniProt P32597); format: binding
T1 sequence (P32597 301-1097): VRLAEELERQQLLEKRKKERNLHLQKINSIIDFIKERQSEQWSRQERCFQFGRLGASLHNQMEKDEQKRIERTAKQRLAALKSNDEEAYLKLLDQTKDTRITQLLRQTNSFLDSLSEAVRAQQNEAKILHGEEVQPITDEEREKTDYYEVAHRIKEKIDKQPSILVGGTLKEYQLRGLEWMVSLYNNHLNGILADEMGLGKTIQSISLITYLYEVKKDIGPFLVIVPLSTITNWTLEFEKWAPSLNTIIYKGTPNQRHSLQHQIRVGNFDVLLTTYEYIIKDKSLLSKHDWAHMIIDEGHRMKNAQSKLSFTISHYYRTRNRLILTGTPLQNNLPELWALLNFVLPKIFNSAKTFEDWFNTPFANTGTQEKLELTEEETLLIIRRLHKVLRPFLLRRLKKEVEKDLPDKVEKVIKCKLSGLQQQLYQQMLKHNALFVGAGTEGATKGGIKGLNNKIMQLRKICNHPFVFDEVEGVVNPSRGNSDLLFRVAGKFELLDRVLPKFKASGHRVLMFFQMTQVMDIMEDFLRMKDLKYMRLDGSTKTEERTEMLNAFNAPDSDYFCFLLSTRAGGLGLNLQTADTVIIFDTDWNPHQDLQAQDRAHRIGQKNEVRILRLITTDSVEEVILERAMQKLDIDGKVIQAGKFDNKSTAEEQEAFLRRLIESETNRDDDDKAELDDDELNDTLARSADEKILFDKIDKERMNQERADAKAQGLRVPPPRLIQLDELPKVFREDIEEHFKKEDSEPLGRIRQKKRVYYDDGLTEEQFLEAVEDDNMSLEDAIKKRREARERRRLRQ
T1 sequence (Q12406 1-477 partner): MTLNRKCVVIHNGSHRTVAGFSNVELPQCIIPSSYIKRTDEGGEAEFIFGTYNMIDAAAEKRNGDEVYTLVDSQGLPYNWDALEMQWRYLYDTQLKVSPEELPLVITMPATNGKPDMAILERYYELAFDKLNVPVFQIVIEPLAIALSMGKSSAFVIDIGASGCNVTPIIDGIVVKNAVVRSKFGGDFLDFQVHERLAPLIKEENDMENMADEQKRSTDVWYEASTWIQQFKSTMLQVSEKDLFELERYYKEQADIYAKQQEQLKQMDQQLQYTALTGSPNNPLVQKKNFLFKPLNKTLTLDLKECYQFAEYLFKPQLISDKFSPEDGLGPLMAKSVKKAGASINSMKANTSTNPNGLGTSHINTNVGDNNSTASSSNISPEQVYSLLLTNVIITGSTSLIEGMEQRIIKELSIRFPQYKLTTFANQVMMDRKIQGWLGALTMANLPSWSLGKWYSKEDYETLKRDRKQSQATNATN
T1 sequence (Q05123 1-467 partner): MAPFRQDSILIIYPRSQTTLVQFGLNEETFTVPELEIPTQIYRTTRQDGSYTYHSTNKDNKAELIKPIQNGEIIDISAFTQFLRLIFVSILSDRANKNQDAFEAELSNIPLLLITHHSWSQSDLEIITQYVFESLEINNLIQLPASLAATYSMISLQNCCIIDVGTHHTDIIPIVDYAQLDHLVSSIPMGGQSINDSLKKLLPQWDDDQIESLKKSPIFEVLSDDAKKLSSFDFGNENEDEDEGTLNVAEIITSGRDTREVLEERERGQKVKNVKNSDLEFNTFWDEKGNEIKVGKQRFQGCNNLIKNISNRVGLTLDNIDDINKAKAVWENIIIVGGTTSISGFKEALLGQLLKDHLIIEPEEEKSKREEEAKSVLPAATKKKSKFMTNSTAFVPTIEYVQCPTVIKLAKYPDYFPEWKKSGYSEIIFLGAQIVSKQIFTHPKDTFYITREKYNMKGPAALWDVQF

[2] = biological target: T1, Sth1 (ATPase subunit of RSCt, trimeric minimal RSC); format: binding; remark: listed apart in the source

Compound | Kd [1] | Kd [2]
Nc1ncnc2c1ncn2[C@@H]1O[C@H](COP(=O)(O)OP(=O)(O)O)[C@@H](O)[C@H]1O [ADP] | 14 ± 4 µM | –
Nc1ncnc2c1ncn2[C@@H]1O[C@H](COP(=O)(O)OP(=O)(O)NP(=O)(O)O)[C@@H](O)[C@H]1O [AMP-PNP] | – | 72 ± 6 µM
